The values that follow come from paper PMC6684055 (Toxicology letters, 2019).

Several values for one entry are separate records, joined by “and”; a condition that tells them apart may be missing. Identical values can stand only once. Entries after “also recorded” stand apart in the source; their conditions may differ.

For orientation: inhibition means the percentage by which the read-out fell short of the control. Low values mean little suppression, high ones strong suppression.

For data set [1], the system named is CYP1A1 and CYP1A2. In words: Expression of CYP1A1 and CYP1A2 mRNAs. The format is cell-based, human. Particulars: three donors, 24 h, MMI 200 μM, TCDD 5 nM.
The nature of data set [2]: Residual MMI in culture media after incubation with primary human hepatocytes. The data set is classed as in vitro ADME. The following applies: 24 h incubation with human hepatocytes, initial 200 μM.
For data set [3], the system named is CYP1A genes. In words: Induction of CYP1A genes. The following applies: 5 F-HepaRG cells, 24 h, MMI 200 μM; for efficacy of CYP1A genes induction relative to TCDD (100%): TCDD 5 nM.
Data set [4] relates to human AhR. Particulars: cited from earlier work.
The test system of data set [5] is CYP1A1. The data set can be described thus: Induction of CYP1A1 catalytic activity in primary human hepatocytes. The format is cell-based. The following applies: 24 h; for induction of CYP1A1 activity, concentration-response profile (in words): then luciferin-CEE 3 h.
In data set [6] the test system is CYP1A1. The data set can be described thus: Induction of CYP1A1 catalytic activity in LS180 cells. Particulars: 24 h, inverse U-shape profile. The format is cell-based, human.
The subject of data set [7] is CYP1A1. In words: Single concentration inactivation assay. The format is biochemical. The following applies: human, human liver microsomes, probe Luciferin-CEE.
Data set [8] concerns CYP1A1. The following applies: ref Stepankova et al., 2018; cited from earlier work.
Data set [9] has as its target T1, AhR (Homo sapiens, UniProt P35869).
T1 sequence (P35869 11-848): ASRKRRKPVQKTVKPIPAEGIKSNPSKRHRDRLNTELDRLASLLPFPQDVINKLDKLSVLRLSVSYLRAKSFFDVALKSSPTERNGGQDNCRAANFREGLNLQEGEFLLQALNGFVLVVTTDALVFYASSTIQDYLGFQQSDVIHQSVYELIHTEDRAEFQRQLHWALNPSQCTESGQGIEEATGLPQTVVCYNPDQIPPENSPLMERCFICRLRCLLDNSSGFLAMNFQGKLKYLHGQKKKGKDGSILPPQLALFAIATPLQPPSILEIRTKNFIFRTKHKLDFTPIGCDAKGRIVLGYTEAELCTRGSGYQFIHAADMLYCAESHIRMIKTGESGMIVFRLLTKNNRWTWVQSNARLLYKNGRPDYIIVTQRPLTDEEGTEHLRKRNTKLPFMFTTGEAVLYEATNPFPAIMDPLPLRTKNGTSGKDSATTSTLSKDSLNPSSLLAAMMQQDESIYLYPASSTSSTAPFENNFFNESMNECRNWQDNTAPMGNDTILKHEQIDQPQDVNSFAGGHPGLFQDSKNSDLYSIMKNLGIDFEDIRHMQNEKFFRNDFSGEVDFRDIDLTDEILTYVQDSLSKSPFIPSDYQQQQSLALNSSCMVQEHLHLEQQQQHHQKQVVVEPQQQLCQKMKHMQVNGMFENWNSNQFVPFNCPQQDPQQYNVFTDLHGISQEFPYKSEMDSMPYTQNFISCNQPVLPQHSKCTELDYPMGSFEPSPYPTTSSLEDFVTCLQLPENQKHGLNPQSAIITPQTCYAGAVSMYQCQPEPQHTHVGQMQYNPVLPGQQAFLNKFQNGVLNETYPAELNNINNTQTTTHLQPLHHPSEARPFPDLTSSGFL
The format is cell-based. The following applies: AZ-AHR cells, without incubation with hepatocytes.

Data set [10] concerns CYP1A2 mRNA. In words: CYP1A2 mRNA expression. The data set is classed as cell-based, human. Particulars: 5 F-HepaRG cells, 24 h, TCDD 5 nM, two consecutive passages.
[11] abbreviates: human hepatocytes, MMI 0.1-200 μM.

On to `Cn1ccc2ccccc21` [1-methylindole], for which, in [1], the “induction of CYP1A1 and CYP1A2 mRNAs and proteins in primary human hepatocytes (in words)” value is “Modest induction”. Besides, in data set [2], the “residual MMI in culture media (in words)” value is recorded as “no residual MMI was detected”. For the same compound, in data set [3], the “efficacy of CYP1A genes induction relative to TCDD (100%)” value worked out at 15%.
On to `Cc1cc2ccccc2[nH]1` [2-methylindole], for which the “activity at AhR (in words)” value in [4] (ref Stepankova et al., 2018) is “nearly inactive”. Moreover, the “induction of CYP1A1 and CYP1A2 mRNAs and proteins in primary human hepatocytes (in words)” value in data set [1] is “no effect”. Also, the “induction of CYP1A1 activity, concentration-response profile (in words)” value (“induction of CYP1A1 activity” below) in data set [5] (setting [11]) is recorded as “No induction”. In addition, the “concentration at peak of CYP1A1 induction” value (from here on “concentration at peak”) in data set [6] stood at 25 µM. For the same compound, the “CYP1A induction in HepaRG cells (in words)” value in [3] is “nearly inactive”.
On to `Cc1c[nH]c2ccccc12` [3-methylindole], for which the “activity at human AhR (in words)” value in data set [4] (ref Rasmussen et al., 2016) is recorded as “partial agonist”. Further, in [1], the “induction of CYP1A1 and CYP1A2 mRNAs and proteins in primary human hepatocytes (in words)” value was “Modest induction”. Further, the “induction of CYP1A1 activity” value in data set [5] (setting [11]) was “No induction”.
For `Cc1cccc2[nH]ccc12` [4-methylindole], the “efficacy as AhR agonist compared to 3-methylindole (skatole)” value in data set [4] (ref Stepankova et al., 2018) is “approx. 25 times”. In addition, the inhibition at 30 min, 200 μM in data set [7] is 10%. In addition, in [5] (setting [11]), the “induction of CYP1A1 activity” value is on record as “Inverse U-shaped”. Besides, the “concentration at peak” value in data set [6] is 25 µM. The “efficacy of CYP1A genes induction relative to TCDD (100%)” value in data set [3] is given as around 100%.
Consider `Cc1ccc2[nH]ccc2c1` [5-methylindole], for which the inhibition at 30 min, 200 μM in [7] is 47%. Moreover, the “induction of CYP1A1 activity” value in [5] (setting [11]) was “Inverse U-shaped”. For the same compound, in data set [3], the “efficacy of CYP1A genes induction relative to TCDD (100%)” value was ~ 20%.
As to `Cc1ccc2cc[nH]c2c1` [6-methylindole], the “efficacy as AhR agonist compared to 3-methylindole (skatole)” value in data set [4] (ref Stepankova et al., 2018) is recorded as “approx. 25 times”. The “induction of CYP1A1 activity” value in data set [5] (setting [11]) is “Inverse U-shaped”. Further, in data set [6], the “concentration at peak” value is 25 µM.
With `Cc1cccc2cc[nH]c12` [7-methylindole], the “induction of CYP1A1 and CYP1A2 mRNAs and proteins in primary human hepatocytes (in words)” value in [1] is reported as “strong inducer; also recorded: very strong inducer”. The “CYP1A induction in LS180 intestinal cells (in words)” value in [8] is listed as “modest CYP1A inducer; also recorded: weak inducer”. Moreover, in data set [5] (setting [11]), the “relative efficacy of CYP1A1 activity induction as compared to TCDD” value is recorded as ~ 2% and the “induction of CYP1A1 activity” value is “Concentration-dependent induction”. For the same compound, in [9], the “AhR agonist activity of parental compound (in words)” value was “weak agonist of AhR”. For the same compound, in data set [3], the “CYP1A induction in HepaRG cells (in words)” value is given as “modest CYP1A inducer” and the “efficacy of CYP1A genes induction relative to TCDD (100%)” value is on record as ~ 20%.
In the case of `Clc1cc2c(cc1Cl)Oc1cc(Cl)c(Cl)cc1O2` [TCDD, 2,3,7,8-tetrachlorodibenzo-p-dioxin, reference compound], the “induction of CYP1A1 and CYP1A2 mRNAs and proteins in primary human hepatocytes (in words)” value in [1] is “strongly induced”. In addition, the “induction of CYP1A1 enzyme activity” value in data set [5] (human hepatocytes culture Hep200571, TCDD 5 nM) is given as 11 fold; in data set [5] (human hepatocytes culture Hep220993, TCDD 5 nM), 153 fold. Besides, the “induction of CYP1A2 mRNA” value in data set [10] is 34 fold and 50 fold.
